The results in this text go back to article PMC3747139 (PLoS ONE, 2013).

Data set [1] is described as follows: Cell count assay (trypan blue). The class given is cell-based. Details: concentration or dose not given beside the values. The note with it: human; for viability at 24 h: read-out: Number of viable cells after 24 h of ligand treatment; for viability at 48 h: read-out: Number of viable cells after 48 h of ligand treatment. Here is the method:
(§1) Normal and tumor cell lines were seeded at 20000–40000 cells/cm^2 with 0.2 mL/cm^2 media and incubated for 48 h at 37°C, 6% CO2, 95% relative humidity. […] After 24 h and 48 h of incubation, cells were washed with 300 µl PBS or 0.02% EDTA, trypsinized, followed by harvesting at 37°C. 200 µl cell suspension was transferred into 1.5 ml microcentrifuge tube. To the cell suspension, 300 µl PBS followed by 500 µl of 0.4% trypan blue solution was added. To get the homogenised solution, the microcentrifuge tube was gently tapped for 5 min, 20 µl of cell suspension was loaded in to a chamber of the haemocytometer.

In the next data set the test system is A549. As to the kind of experiment: Cell count assay (trypan blue). In kind it is cell-based, human. Conditions: for Number of viable cells after 24 h of ligand treatment: A549, 24 h; for Number of viable cells after 48 h of ligand treatment: A549, 48 h. How it is done:
as §1

In a further data set the test system is B16F10. As to the kind of experiment: Cell count assay (trypan blue). The class given is cell-based, human. The note with it: for Number of viable cells after 24 h of ligand treatment: B16F10, 24 h; for Number of viable cells after 48 h of ligand treatment: B16F10, 48 h. How it is done:
as §1

The test system of another data set is MCF-7. In words: Cell count assay (trypan blue). The class given is cell-based, human. The note with it: for Number of viable cells after 24 h of ligand treatment: MCF-7, 24 h; for Number of viable cells after 48 h of ligand treatment: MCF-7, 48 h. Here is the method:
as §1

The subject of the next data set is HQF DNA [d(T2AG3)4]. As to the kind of experiment: SYBR Green melting study with HQF DNA. The class given is binding, human. The note with it: melting temperature of HQF DNA (5 µM) in presence of 1 µM ligand. Here is the method:
When quadruplex DNA melts to form ssDNA structure, SG fluorescence intensity gradually reduces as SG has no binding to ssDNA. Each time, 5 µM of HQF DNA [d(T2AG3)4)], 5 µM of dsDNA (prepared by mixing equal concentration of poly-dA-dT and poly-dT-dA), 5 µM ssDNA ( poly dT alone) and 1 µM of each ligand was incubated at 4°C for 16 h, and used for melting studies. […] Affinity, stoichiometry and thermodynamic parameters for quadruplex-ligand complex were studied with 60 µM of ligand and 10 µM of HQF DNA using Microcal VP-ITC (Northampton, MA, USA). Ligand addition to G-quadruplex DNA was made every 180 seconds. Titration experiments were performed thrice and blank correction was made each time to minimize error.

Where [2] appears, read: CRL-2115 cells (normal cell line), CRL-2115, 24 h.
The mark [3] stands for this setting: CRL-2115 cells (normal cell line), CRL-2115, 48 h.
Setting [4] is: CRL-2120 cells (normal cell line), CRL-2120, 24 h.
[5] abbreviates: CRL-2120 cells (normal cell line), CRL-2120, 48 h.
Setting [6] is: NCM-460 cells (normal cell line), NCM-460, 24 h.
Setting [7] is: NCM-460 cells (normal cell line), NCM-460, 48 h.

Where two headings read alike, the source gives them in different places. Marks after values point to notes of the source that are not given here.

For the molecule `c1ccc(-c2nnn(CC3CCCCO3)c2-c2ccccc2)cc1` (stereo not shown) [Ligand L7, 4,5-Diphenyl-1-((tetrahydro-2H-pyran-2-yl)methyl)-1H-1,2,3-triazole], the viability at 24 h in data set [1] (setting [2]), in data set [1] (setting [4]) and in data set [1] (setting [6]) was 80 to 90% in each case. In addition, the viability at 48 h in data set [1] (setting [3]) lay within 80 to 90%; in data set [1] (setting [5]), 50 to 60%; in data set [1] (setting [7]) it was 50 to 60%. The results for the “Number of viable cells after 24 h of ligand treatment” value in the data set with A549, with B16F10 and in the data set on MCF-7 were “+/+ (Viable cells in the range of 80%–90%)”, “+ (Viable cells in the range of 80%–90%)” and “+ (Viable cells in the range of 80%–90%)”, respectively. The results for the “Number of viable cells after 48 h of ligand treatment” value in the data set with A549, with B16F10 and in the data set on MCF-7 were “+/+ (Viable cells in the range of 80%–90%)”, “++ (Viable cells in the range of 50%–60%)” and “++ (Viable cells in the range of 50%–60%)”, respectively. In addition, in the data set on HQF DNA [d(T2AG3)4], the Tm is 29 ^o C.
As to `CCOC(=O)c1nnn(Cc2ccccc2)c1-c1ccccc1` [Ligand L9, Ethyl 1-benzyl-5-phenyl-1H-1,2,3-triazole-4-carboxylate], the viability at 24 h in data set [1] (setting [2]), in data set [1] (setting [4]) and in data set [1] (setting [6]) was 80 to 90% each time. Moreover, the viability at 48 h in data set [1] (setting [3]) was 50 to 60%; in data set [1] (setting [5]), 80 to 90%; in data set [1] (setting [7]) it was 80 to 90%. Also, the “Number of viable cells after 24 h of ligand treatment” value is on record as “+ (Viable cells in the range of 80%–90%)” with A549, “+ (Viable cells in the range of 80%–90%)” with B16F10 and “+/+ (Viable cells in the range of 80%–90%)” in the data set on MCF-7. Moreover, the results for the “Number of viable cells after 48 h of ligand treatment” value in the data set with A549, in the data set on B16F10 and with MCF-7 were “++ (Viable cells in the range of 50%–60%)”, “++ (Viable cells in the range of 50%–60%)” and “+/+ (Viable cells in the range of 80%–90%)”, respectively. Also, the Tm with HQF DNA [d(T2AG3)4] was 29 ^o C.
`CCOC(=O)c1nnn(Cc2ccccc2)c1/C=C/c1ccccc1` [Ligand L10, (E)-Ethyl 1-benzyl-5-styryl-1H-1,2,3-triazole-4-carboxylate]: the viability at 24 h in data set [1] (setting [2]), in data set [1] (setting [4]) and in data set [1] (setting [6]) was 80 to 90% each time. In addition, the viability at 48 h lay within 80 to 90% in data set [1] (setting [3]), 80 to 90% in data set [1] (setting [5]) and 50 to 60% in data set [1] (setting [7]). For the same molecule, the “Number of viable cells after 24 h of ligand treatment” value was “+/+ (Viable cells in the range of 80%–90%)” in the data set on A549, “+ (Viable cells in the range of 80%–90%)” in the data set with B16F10 and “+ (Viable cells in the range of 80%–90%)” in the data set on MCF-7. Further, the “Number of viable cells after 48 h of ligand treatment” value is listed as “+/+ (Viable cells in the range of 80%–90%)” with A549, “++ (Viable cells in the range of 50%–60%)” in the data set on B16F10 and “++ (Viable cells in the range of 50%–60%)” in the data set with MCF-7. The Tm in the data set with HQF DNA [d(T2AG3)4] was 33 ^o C.
As to `CCOC(=O)c1nnn(Cc2ccccc2)c1-c1cccc(O)c1` [Ligand L11, Ethyl 1-benzyl-5-(3-hydroxyphenyl)-1H-1,2,3-triazole-4-carboxylate], the viability at 24 h in data set [1] (setting [2]), in data set [1] (setting [4]) and in data set [1] (setting [6]) was 80 to 90% each time. In addition, the viability at 48 h in data set [1] (setting [3]), in data set [1] (setting [5]) and in data set [1] (setting [7]) was 80 to 90% throughout. In addition, the “Number of viable cells after 24 h of ligand treatment” value in the data set on A549, in the data set with B16F10 and with MCF-7 was “+ (Viable cells in the range of 80%–90%)” throughout. Also, the “Number of viable cells after 48 h of ligand treatment” value with A549, in the data set with B16F10 and in the data set on MCF-7 was “++ (Viable cells in the range of 50%–60%)” in each case. The Tm in the data set on HQF DNA [d(T2AG3)4] is 28 ^o C.
Regarding `C(=C\c1c(-c2ccccc2)nnn1CC1CCCCO1)/c1ccccc1` (stereo not shown) [Ligand L12, (E)-4-Phenyl-5-styryl-1-((tetrahydro-2H-pyran-2-yl)methyl)-1H-1,2,3-triazole], the viability at 24 h in data set [1] (setting [2]), in data set [1] (setting [4]) and in data set [1] (setting [6]) was 80 to 90% each time. In addition, the values for the viability at 48 h in data set [1] (setting [3]), in data set [1] (setting [5]) and in data set [1] (setting [7]) were 80 to 90%, 80 to 90% and 50 to 60%, respectively. The “Number of viable cells after 24 h of ligand treatment” value is recorded as “+/+ (Viable cells in the range of 80%–90%)” in the data set with A549, “+ (Viable cells in the range of 80%–90%)” with B16F10 and “+ (Viable cells in the range of 80%–90%)” in the data set on MCF-7. The results for the “Number of viable cells after 48 h of ligand treatment” value in the data set on A549, in the data set with B16F10 and with MCF-7 were “+/+ (Viable cells in the range of 80%–90%)”, “++ (Viable cells in the range of 50%–60%)” and “++ (Viable cells in the range of 50%–60%)”, respectively. In addition, the Tm in the data set on HQF DNA [d(T2AG3)4] is recorded as 31 ^o C.
For the molecule `Oc1cccc(-c2c(-c3ccccc3)nnn2CC2CCCCO2)c1` (stereo not shown) [Ligand L13, 3-(5-Phenyl-3-((tetrahydro-2H-pyran-2-yl)methyl)-3H-1,2,3-triazol-4-yl)phenol], the viability at 24 h in data set [1] (setting [2]), in data set [1] (setting [4]) and in data set [1] (setting [6]) was 80 to 90% in each case. The viability at 48 h in data set [1] (setting [3]), in data set [1] (setting [5]) and in data set [1] (setting [7]) was 80 to 90% throughout. For the same molecule, the entries for the “Number of viable cells after 24 h of ligand treatment” value in the data set with A549, in the data set on B16F10 and in the data set on MCF-7 were “+/+ (Viable cells in the range of 80%–90%)”, “+ (Viable cells in the range of 80%–90%)” and “+/+ (Viable cells in the range of 80%–90%)”, respectively. Moreover, the “Number of viable cells after 48 h of ligand treatment” value in the data set on A549 is “+/+ (Viable cells in the range of 80%–90%)”; in the data set on B16F10 it was “++ (Viable cells in the range of 50%–60%)”; with MCF-7 it was “+/+ (Viable cells in the range of 80%–90%)”. Moreover, in the data set on HQF DNA [d(T2AG3)4], the Tm is recorded as 33 ^o C.
Regarding `COc1ccc(-c2c(-c3ccccc3)nnn2CC2CCCCO2)cc1` (stereo not shown) [Ligand L14, 5-(4-Methoxyphenyl)-4-phenyl-1-((tetrahydro-2H-pyran-2-yl)methyl)-1H-1,2,3-triazole], the viability at 24 h in data set [1] (setting [2]), in data set [1] (setting [4]) and in data set [1] (setting [6]) was 80 to 90% throughout. Besides, the viability at 48 h lay in the range of 80 to 90% in data set [1] (setting [3]), 80 to 90% in data set [1] (setting [5]) and 50 to 60% in data set [1] (setting [7]). Also, the “Number of viable cells after 24 h of ligand treatment” value with A549, with B16F10 and with MCF-7 was “+ (Viable cells in the range of 80%–90%)” throughout. For the same molecule, the “Number of viable cells after 48 h of ligand treatment” value in the data set on A549, in the data set with B16F10 and in the data set on MCF-7 was “++ (Viable cells in the range of 50%–60%)” throughout. In the data set on HQF DNA [d(T2AG3)4], the Tm is listed as 27 ^o C.
